As a reminder, the viability, T/C is the result in the treated group divided by that in the control group, in per cent. For orientation: IC50 means the concentration that gives 50% inhibition.

The values below come from PubChem BioAssay AID2060509 (Molecular Pharmacology Branch, DTP, NCI, 2025).

This assay has as its system 485176-168-R4-J1-PDC spheroids with HUVEC/MSC, viability. In words: Anticancer human tumor 485176-168-R4-J1-PDC patient-derived pancreatic adenocarcinoma cell line growth inhibition [GQUAD]. The note with it: for viability, T/C: stronger effect = lower value. From the text:
DNA G-quadruplex Stabilizer Agents in Combinations in Complex Spheroids
A high-throughput screen of multi-cell type tumor spheroids was designed to identify active combinations of DNA G-quadruplex stabilizer agents and targeted small molecules. Complex spheroids include a stromal component modeled by human endothelial cells (HUVEC) and fibroblasts modeled by human mesenchymal stem cells (MSCs). The concentration ranges selected for each drug and investigational agent were based upon clinically achievable concentrations if the clinical Cmax of the agent was known.
Compounds. The drugs and investigational agents: pidnarulex (CX-5461; NSC782164), APTO-253 (NSC789042), BRACO-19 (NSC847499), peposertib (NSC802822), ceralasertib (NSC780249), elimusertib (NSC800525), camonsertib (NSC841442), AZD-1390 (NSC803789), olaparib (NSC753686), talazoparib (NSC767125), ART-558 (NSC835418), sotorasib (NSC818433), MRTX-1133 (NSC836407), SN-38 (NSC673596), topotecan (NSC609699), etoposide (NSC141540), doxorubicin (NSC123127), gemcitabine (NSC613327), 5-fluorouracil (NSC19893), paclitaxel (NSC125973), vemurafenib (NSC761431), panobinostat (NSC761190), R-306465 (JNJ-16241199; NSC773264), adavosertib (NSC754352), TP-3654 (NSC805149), carboplatin (NSC241240), KSQ-4279 (NSC840948), and staurosporine (NSC755774) were obtained from the National Cancer Institute (NCI) Developmental Therapeutics Program Chemical Repository (34). The FDA-approved anticancer drug set is available from the NCI Developmental Therapeutics Program. […] The stock solutions were prepared in dimethyl sulfoxide (DMSO, Sigma-Aldrich, St. Louis, MO, cat. D2650) at 800-fold the tested concentration and stored at -70 degrees C prior to their use. All drugs and investigational agents were tested over a range starting from a high concentration at or near the clinical Cmax and decreasing in half-log increments. If the clinical Cmax for an agent had not been determined, the highest concentration tested was 10 microM.
2.3 Cell Culture. All cells were maintained in an incubator at 37 degrees C and 5% CO2 with 95% humidity. The PDC lines were cultured according to standard operating procedures established by the NCI PDMR. All PDCs were thawed and cultured in Matrigel-coated flasks prepared with a working solution of 1X Ham's F-12 nutrient mix, without supplementation (Invitrogen, cat. 11765054), 100 U/mL penicillin-streptomycin (Invitrogen, cat. 15140122), and 2.5% Matrigel (Corning Inc., cat. 354248) for the first three passages. The 857933-349-R-J2-PDC line was cultured in 6C/Colon 1B media, which includes advanced DMEM/F-12 (Thermo Fisher Scientific, cat. 12634028), 10 mM HEPES (Thermo Fisher Scientific, cat. 15630080), 1X GlutaMAX supplement (Thermo Fisher Scientific, cat. 35050061), 0.1 mg/mL primocin (InvivoGen, cat. ant-pm-2), 10% defined fetal bovine serum, heat inactivated (HyClone Laboratories Inc., cat. SH30070.03HI), 50% L-WRN conditioned media (ATCC, cat. CRL-3276), 1.25 mM N-Acetyl-L-cysteine (Sigma-Aldrich, cat. A9165), 10 mM nicotinamide (Sigma-Aldrich, cat. N0636), 1X B-27 supplement (Thermo Fisher Scientific, cat. 17504044), 1X N-2 supplement (Thermo Fisher Scientific, cat. 17502048), 10 microM Y-27632 dihydrochloride (Tocris Bioscience, cat. 1254), and 50 ng/mL human EGF recombinant protein (Thermo Fisher Scientific, cat. PHG0311). The 485176-168-R4-J1-PDC line was cultured in Panc media, which includes all 6C/Colon 1B media components plus 100 ng/mL human FGF-10 (Thermo Fisher Scientific, cat. 100-26), 500 nM SB-431542 (Selleckchem, cat. S1067), and gastrin (Tocris, cat. 3006).
[…]

Structures are written as SMILES. “And” between values parts separate entries of the source, which are not always exact repeats. Equal values may be shown once.
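Note: spheroids exposed to compounds for seven days before readout.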
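Throughout, for viability, T/C: percent viability relative to DMSO vehicle control wells as 100%.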

In the case of `CC(C)(O)C1CCC(Nc2ccc3ncc(-c4cccc(C(F)(F)F)c4)n3n2)CC1` (stereo unspecified), the viability, T/C runs as follows: (compound 0.0316 µM) 95.2% and 95.5% and 94.6%; (compound 0.1 µM) 110% and 90.6% and 87.2%; (compound 0.316 µM) 83.9% and 93.9% and 92.1%; (compound 1 µM) 84.3% and 91.6% and 77.9%; (compound 3.16 µM) 53.8% and 62.9% and 60.7%; (compound 10 µM) 57.8% and 57.9% and 56.4%. Moreover, the concentration for half-maximal inhibition (IC50) (curve of compound) was greater than 10000 nM.
With `O=C(NO)c1cnc(N2CCN(S(=O)(=O)c3ccc4ccccc4c3)CC2)nc1`, the viability, T/C was 83.4% and 107% and 97.9% (compound 0.0316 µM); 99.5% and 73.2% and 76.1% (compound 0.1 µM); 67.6% and 78.2% and 61.2% (compound 0.316 µM); 7.2% and 12.1% and 11% (compound 1 µM); 0.3% and 0.31% and 0.2% (compound 3.16 µM); 0.3% and 0.31% and 0.29% (compound 10 µM). In addition, the IC50 (curve of compound) was 443 nM and 512 nM and 378 nM.
For the molecule `C=CC(=O)N1CCN(c2nc(=O)n(-c3c(C)ccnc3C(C)C)c3nc(-c4c(O)cccc4F)c(F)cc23)C(C)C1` (stereo unspecified), the viability, T/C reads like this: (compound 0.0316 µM) 94.5% and 108% and 99.3%; (compound 0.1 µM) 80.1% and 83.2% and 93.6%; (compound 0.316 µM) 115% and 110% and 111%; (compound 1 µM) 91.1% and 122% and 103%; (compound 3.16 µM) 113% and 109% and 111%; (compound 10 µM) 96.8% and 114% and 107%. The IC50 (curve of compound) is greater than 10000 nM.
As for `COc1ccc([C@@H](O)c2cc(-c3ncnc4cc(N5CCOCC5)ccc34)c(F)cc2Cl)nn1`, the viability, T/C runs as follows: (compound 0.0316 µM) 89.1% and 113% and 89.2%; (compound 0.1 µM) 75.3% and 88.3% and 77.7%; (compound 0.316 µM) 87.5% and 97.3% and 96%; (compound 1 µM) 73.4% and 71.1% and 64.4%; (compound 3.16 µM) 46.6% and 64.8% and 57.1%; (compound 10 µM) 31.4% and 30% and 28.4%. The concentration for half-maximal inhibition (IC50) (curve of compound) is 2720 nM and 4600 nM and 3810 nM.
For the molecule `COc1ncnc(C2CC2)c1-c1ncc2cnn(Cc3ccc(-c4nc(C(F)(F)F)cn4C(C)C)cc3)c2n1`, the viability, T/C (compound 0.0316 µM) was 95.3% and 93.3% and 91.2%; the viability, T/C (compound 0.1 µM) is 96.5% and 107% and 90.4%; the viability, T/C (compound 0.316 µM) was 104% and 96.2% and 105%; the viability, T/C (compound 1 µM) is 84.1% and 92.2% and 106%; the viability, T/C (compound 3.16 µM) is 102% and 107% and 93.4%; the viability, T/C (compound 10 µM) is 103% and 106% and 98.5%. The 50% inhibitory concentration (IC50) (curve of compound) was greater than 10000 nM.
For `Cc1cnc(CNC(=O)c2c(=O)c3ccc(N4CCCN(C)CC4)nc3n3c2sc2ccccc23)cn1`, the viability, T/C is, setting by setting: (compound 0.0316 µM) 90.3% [middle of 12 runs]; (compound 0.1 µM) 78.8% [middle of 12 runs]; (compound 0.316 µM) 64.4% [middle of 12 runs]; (compound 1 µM) 55% [middle of 12 runs]; (compound 3.16 µM) 39.6% [middle of 12 runs]; (compound 10 µM) 36.6% [middle of 12 runs]. Also, the half-maximal inhibitory concentration (IC50) (compound alone, run of 03/18/2024) was 1.17 µM [middle of 10 runs].
Turning to `COc1cc(C2c3cc4c(cc3C(OC3OC5COC(C)OC5C(O)C3O)C3COC(=O)C23)OCO4)cc(OC)c1O` (stereo unspecified), the viability, T/C was 102% and 101% and 95% (compound 0.0316 µM); 80.2% and 68.8% and 67.7% (compound 0.1 µM); 46.6% and 39.1% and 39.6% (compound 0.316 µM); 39.9% and 38.8% and 40.8% (compound 1 µM); 25.9% and 24.6% and 23.1% (compound 3.16 µM); 13.2% and 13.4% and 11% (compound 10 µM). Also, the IC50 (curve of compound) was 406 nM and 255 nM and 269 nM.
As to `CN(C)c1ccc(Nc2c3ccc(NC(=O)CCN4CCCC4)cc3nc3cc(NC(=O)CCN4CCCC4)ccc23)cc1`, the viability, T/C was 101% [middle of 12 runs] (compound 0.0316 µM), 102% [middle of 12 runs] (compound 0.316 µM), 93.2% [middle of 12 runs] (compound 3.16 µM) and 84.2% [middle of 12 runs] (compound 10 µM). For the same molecule, the IC50 (compound alone, run of 03/26/2024) was greater than 10000 nM.
`COc1cccc2c1C(=O)c1c(O)c3c(c(O)c1C2=O)CC(O)(C(=O)CO)CC3OC1CC(N)C(O)C(C)O1` (stereo unspecified) + Cc1cnc(CNC(=O)c2c(=O)c3ccc(N4CCCN(C)CC4)nc3n3c2sc2ccccc23)cn1: the IC50 by setting is: (curve of first compound, second compound 0.0316 µM) 398 nM; (curve of first compound, second compound 0.1 µM) 141 nM; (curve of first compound, second compound 0.316 µM) 196 nM; (curve of first compound, second compound 1 µM) less than 31.6 nM; (curve of first compound, second compound 3.16 µM) less than 31.6 nM; (curve of first compound, second compound 10 µM) less than 31.6 nM. In addition, the viability, T/C by setting is: (second compound 0.0316 µM, first compound 0.0316 µM) 81.3%; (second compound 0.0316 µM, first compound 0.1 µM) 60.9%; (second compound 0.0316 µM, first compound 0.316 µM) 60.5%; (second compound 0.0316 µM, first compound 1 µM) 13.4%; (second compound 0.0316 µM, first compound 3.16 µM) 3.49%; (second compound 0.0316 µM, first compound 10 µM) 0.42%. In addition, the viability, T/C (second compound 0.1 µM, first compound 0.0316 µM) is 80.5%; the viability, T/C (second compound 0.1 µM, first compound 0.1 µM) was 55.9%; the viability, T/C (second compound 0.1 µM, first compound 0.316 µM) is 34.5%; the viability, T/C (second compound 0.1 µM, first compound 1 µM) is 20.1%; the viability, T/C (second compound 0.1 µM, first compound 3.16 µM) is 1.67%; the viability, T/C (second compound 0.1 µM, first compound 10 µM) was 0.88%. For the same molecule, the viability, T/C is, setting by setting: (second compound 0.316 µM, first compound 0.0316 µM) 55.8%; (second compound 0.316 µM, first compound 0.1 µM) 50.8%; (second compound 0.316 µM, first compound 0.316 µM) 48.7%; (second compound 0.316 µM, first compound 1 µM) 18.6%; (second compound 0.316 µM, first compound 3.16 µM) 6.39%; (second compound 0.316 µM, first compound 10 µM) 0.16%. Further, the viability, T/C is 54.5% (second compound 1 µM, first compound 0.0316 µM); 41% (second compound 1 µM, first compound 0.1 µM); 51.7% (second compound 1 µM, first compound 0.316 µM); 28.2% (second compound 1 µM, first compound 1 µM); 8.43% (second compound 1 µM, first compound 3.16 µM); 0.95% (second compound 1 µM, first compound 10 µM). For the same molecule, the viability, T/C was 41.6% (second compound 3.16 µM, first compound 0.0316 µM); 40.2% (second compound 3.16 µM, first compound 0.1 µM); 44.5% (second compound 3.16 µM, first compound 0.316 µM); 28.1% (second compound 3.16 µM, first compound 1 µM); 7.56% (second compound 3.16 µM, first compound 3.16 µM); 0.84% (second compound 3.16 µM, first compound 10 µM). The viability, T/C by setting is: (second compound 10 µM, first compound 0.0316 µM) 49.8%; (second compound 10 µM, first compound 0.1 µM) 39.7%; (second compound 10 µM, first compound 0.316 µM) 44.6%; (second compound 10 µM, first compound 1 µM) 30.4%; (second compound 10 µM, first compound 3.16 µM) 7.78%; (second compound 10 µM, first compound 10 µM) 1.08%.
